Converted amounts (≈) assume the structure as drawn.
Assays:
Assay type in all cases: cell-based
[1] = system: Candida glabrata (ATCC no. 48435); assay: MIC determination by broth microdilution (NCCLS), visual scoring; conditions: for MIC80: Nakaseomyces glabratus, ATCC48435, read-out: MIC80 C. glabrata
[2] = system: Candida albicans (ATCC no. 10231); assay: as above; conditions: for MIC80: Candida albicans, ATCC10231, read-out: MIC80 C. albicans
Method in brief: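 NCCLS broth microdilution in RPMI 1640 with 10 mM HEPES, final compound 0.5–128 μg/mL, DMSO ≤1%. Inoculum from 0.5 McFarland stock diluted 1:50; incubated 35 °C for 48–72 h. MIC scored visually as lowest concentration giving ~80% growth reduction versus drug-free wells.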

[3] = system: Candida albicans (ATCC no. 10231) and Candida glabrata (ATCC no 48435); assay: Antifungal activity, text statements that do not say which fungus
Experimental: The antifungal activity of the 2,4,6-pyrimidinetrione analogs shown in Schemes 2-6 were evaluated in vitro using Candida albicans (ATCC no. 10231) and Candida glabrata (ATCC no 48435). All assays were done in accordance with NCCLS reference documents^29. The results of these screenings are summarized in Tables 1-9 as the minimal inhibitory concentrations that inhibited more than 80% fungal growth as compared to the positive controls in 1% DMSO and RPMI media. All MIC screens were done using a visual scoring method as opposed to spectroscopic methods of analysis, due to the physical properties of many of the compounds altering their absorbance spectra relative to the positive, negative and drug controls.
None of the compounds tested over the course of these studies were soluble in water and DMSO was used to dilute each compound tested. Master stock concentrations of all tested compounds were prepared to ensure that the maximum final concentration of DMSO was 1% or less. Subsequent 2-fold serial dilutions were made using sterile water to a final concentration of 1280-5.00 μg/ml. A final 10-fold dilution of each drug was made by aliquotting 0.1 mL of each drug dilution into 0.9 mL of fungal suspension in RPMI 1640 media with 10 mM HEPES buffer added (see methodology below), giving final concentrations tested in the range of 128-0.5 μg/ml.
Antifungal susceptibility studies and minimal inhibitory concentrations (MIC) values for Candida albicans (ATCC no. 10231) and Candida glabrata (ATCC no. 48435) were determined by the broth microdilution technique in accordance with NCCLS reference documents. Microdilution panels ranged from 0.5 to 128 μg/mL. All organisms were subcultured on Sabouraud agar and passaged to ensure purity and viability. The initiating inocula were prepared by picking 5-7 isolated colonies ˜1 mm in diameter from freshly prepared YM agar plates. […] Growth was scored visually. […]

[4] = Table 5, Schiff Bases of 5-acylpyrimidinetriones
[5] = Table 1, 5-Acyl-2,4,6-pyrimidinetriones, >80% growth inhibition, RPMI, 1% DMSO
[6] = Table 2, 5-Arylidene-2,4,6-pyrimidinetriones
[7] = Table 3, 5-Alkylated Pyrimidinetriones
[8] = Table 4, 5,5-Dialkylated Pyrimidinetriones
[9] = Table 8, N-Acylhydrazones of 5-Acylpyrimidinetriones

O=C1NC(=O)C(C=Nc2cccc(O)c2)C(=O)N1 [BA96]
MIC80 C. glabrata [1, 4]: — (none of the 5-acyl-2,4,6-pyrimidinetriones, 5-alkylated pyrimidinetriones or the 5,5-dialkylated pyrimidinetriones showed antifungal activity through 125 μg/mL) | MIC80 C. albicans [2, 4]: — (none of the 5-acyl-2,4,6-pyrimidinetriones, 5-alkylated pyrimidinetriones or the 5,5-dialkylated pyrimidinetriones showed antifungal activity through 125 μg/mL) | inhibition of fungal growth (in words) [3]: inactive

O=CC1C(=O)NC(=O)NC1=O [BA18]
MIC80 C. glabrata [1, 5]: — (none of the 5-acyl-2,4,6-pyrimidinetriones, 5-alkylated pyrimidinetriones or the 5,5-dialkylated pyrimidinetriones showed antifungal activity through 125 μg/mL) | MIC80 C. albicans [2, 5]: — (none of the 5-acyl-2,4,6-pyrimidinetriones, 5-alkylated pyrimidinetriones or the 5,5-dialkylated pyrimidinetriones showed antifungal activity through 125 μg/mL)

CN1C(=O)C(C=O)C(=O)N(C)C1=O [BA19, 1,3-dimethyl-2,4,6-trioxohexahydropyrimidine-5-carbaldehyde]
MIC80 [1]: > 125 µg/mL | MIC80 [2]: > 125 µg/mL

O=C1NC(=O)C(=Cc2ccoc2)C(=O)N1 [BA55]
MIC80 C. glabrata [1, 6]: — (none of the 5-acyl-2,4,6-pyrimidinetriones, 5-alkylated pyrimidinetriones or the 5,5-dialkylated pyrimidinetriones showed antifungal activity through 125 μg/mL) | MIC80 C. albicans [2, 6]: — (none of the 5-acyl-2,4,6-pyrimidinetriones, 5-alkylated pyrimidinetriones or the 5,5-dialkylated pyrimidinetriones showed antifungal activity through 125 μg/mL)

CN1C(=O)C(C(=O)c2ccc([N+](=O)[O-])cc2)C(=O)N(C)C1=O [BA7]
MIC80 C. glabrata [1, 5]: — (none of the 5-acyl-2,4,6-pyrimidinetriones, 5-alkylated pyrimidinetriones or the 5,5-dialkylated pyrimidinetriones showed antifungal activity through 125 μg/mL) | MIC80 C. albicans [2, 5]: — (none of the 5-acyl-2,4,6-pyrimidinetriones, 5-alkylated pyrimidinetriones or the 5,5-dialkylated pyrimidinetriones showed antifungal activity through 125 μg/mL)

O=C1NC(=O)C(=Cc2ccccc2)C(=O)N1 [BA39]
MIC80 C. glabrata [1, 6]: — (none of the 5-acyl-2,4,6-pyrimidinetriones, 5-alkylated pyrimidinetriones or the 5,5-dialkylated pyrimidinetriones showed antifungal activity through 125 μg/mL) | MIC80 C. albicans [2, 6]: — (none of the 5-acyl-2,4,6-pyrimidinetriones, 5-alkylated pyrimidinetriones or the 5,5-dialkylated pyrimidinetriones showed antifungal activity through 125 μg/mL)

O=C1NC(=O)C(C(=O)c2ccc(O)cc2)C(=O)N1 [BA10]
MIC80 C. glabrata [1, 5]: — (none of the 5-acyl-2,4,6-pyrimidinetriones, 5-alkylated pyrimidinetriones or the 5,5-dialkylated pyrimidinetriones showed antifungal activity through 125 μg/mL) | MIC80 C. albicans [2, 5]: — (none of the 5-acyl-2,4,6-pyrimidinetriones, 5-alkylated pyrimidinetriones or the 5,5-dialkylated pyrimidinetriones showed antifungal activity through 125 μg/mL)

COc1ccc(C=C2C(=O)N(C)C(=O)N(C)C2=O)cc1 [BA50]
MIC80 C. glabrata [1, 6]: — (none of the 5-acyl-2,4,6-pyrimidinetriones, 5-alkylated pyrimidinetriones or the 5,5-dialkylated pyrimidinetriones showed antifungal activity through 125 μg/mL) | MIC80 C. albicans [2, 6]: — (none of the 5-acyl-2,4,6-pyrimidinetriones, 5-alkylated pyrimidinetriones or the 5,5-dialkylated pyrimidinetriones showed antifungal activity through 125 μg/mL)

O=C1NC(=O)N(c2ccccc2)C(=O)C1CC1CCC(O)CC1 (centres unmarked) [BA65]
MIC80 C. glabrata [1, 7]: — (none of the 5-acyl-2,4,6-pyrimidinetriones, 5-alkylated pyrimidinetriones or the 5,5-dialkylated pyrimidinetriones showed antifungal activity through 125 μg/mL) | MIC80 C. albicans [2, 7]: — (none of the 5-acyl-2,4,6-pyrimidinetriones, 5-alkylated pyrimidinetriones or the 5,5-dialkylated pyrimidinetriones showed antifungal activity through 125 μg/mL)

COc1ccc(C(=NCCCCCC(=O)O)C2C(=O)NC(=O)NC2=O)cc1 [BA35]
MIC80 C. glabrata [1, 4]: — (none of the 5-acyl-2,4,6-pyrimidinetriones, 5-alkylated pyrimidinetriones or the 5,5-dialkylated pyrimidinetriones showed antifungal activity through 125 μg/mL) | MIC80 C. albicans [2, 4]: — (none of the 5-acyl-2,4,6-pyrimidinetriones, 5-alkylated pyrimidinetriones or the 5,5-dialkylated pyrimidinetriones showed antifungal activity through 125 μg/mL)

CN1C(=O)NC(=O)C(C(=O)c2ccccc2)C1=O (centres unmarked) [BA2]
MIC80 C. glabrata [1, 5]: — (none of the 5-acyl-2,4,6-pyrimidinetriones, 5-alkylated pyrimidinetriones or the 5,5-dialkylated pyrimidinetriones showed antifungal activity through 125 μg/mL) | MIC80 C. albicans [2, 5]: — (none of the 5-acyl-2,4,6-pyrimidinetriones, 5-alkylated pyrimidinetriones or the 5,5-dialkylated pyrimidinetriones showed antifungal activity through 125 μg/mL)

COc1ccc(C(=O)C2C(=O)NC(=O)NC2=O)cc1 [BA14]
MIC80 C. glabrata [1, 5]: — (none of the 5-acyl-2,4,6-pyrimidinetriones, 5-alkylated pyrimidinetriones or the 5,5-dialkylated pyrimidinetriones showed antifungal activity through 125 μg/mL) | MIC80 C. albicans [2, 5]: — (none of the 5-acyl-2,4,6-pyrimidinetriones, 5-alkylated pyrimidinetriones or the 5,5-dialkylated pyrimidinetriones showed antifungal activity through 125 μg/mL)

O=C1NC(=O)C(/C=N/Nc2ccccc2)C(=O)N1 [BA74, 5-[(E)-(2-phenylhydrazinylidene)methyl]pyrimidine-2,4,6-trione]
MIC80 [1]: 2 µg/mL (≈ 8.12 µM) | MIC80 [2]: 4 µg/mL (≈ 16.2 µM)

O=C1NC(=O)C(Cc2ccccc2)(Cc2ccccc2)C(=O)N1 [BA70]
MIC80 C. glabrata [1, 8]: — (none of the 5-acyl-2,4,6-pyrimidinetriones, 5-alkylated pyrimidinetriones or the 5,5-dialkylated pyrimidinetriones showed antifungal activity through 125 μg/mL) | MIC80 C. albicans [2, 8]: — (none of the 5-acyl-2,4,6-pyrimidinetriones, 5-alkylated pyrimidinetriones or the 5,5-dialkylated pyrimidinetriones showed antifungal activity through 125 μg/mL)

COC(=O)NN=C(C)C1C(=O)N(C)C(=O)N(C)C1=O [BA75]
MIC80 C. glabrata [1, 9]: — (none of the 5-acyl-2,4,6-pyrimidinetriones, 5-alkylated pyrimidinetriones or the 5,5-dialkylated pyrimidinetriones showed antifungal activity through 125 μg/mL) | MIC80 C. albicans [2, 9]: — (none of the 5-acyl-2,4,6-pyrimidinetriones, 5-alkylated pyrimidinetriones or the 5,5-dialkylated pyrimidinetriones showed antifungal activity through 125 μg/mL)

CC(=Nc1ccncc1)C1C(=O)N(C)C(=O)N(C)C1=O [BA84]
MIC80 C. glabrata [1, 4]: — (none of the 5-acyl-2,4,6-pyrimidinetriones, 5-alkylated pyrimidinetriones or the 5,5-dialkylated pyrimidinetriones showed antifungal activity through 125 μg/mL) | MIC80 C. albicans [2, 4]: — (none of the 5-acyl-2,4,6-pyrimidinetriones, 5-alkylated pyrimidinetriones or the 5,5-dialkylated pyrimidinetriones showed antifungal activity through 125 μg/mL)

CC(=Nc1ccc(O)cc1)C1C(=O)N(C)C(=O)N(C)C1=O [BA80]
MIC80 C. glabrata [1, 4]: — (none of the 5-acyl-2,4,6-pyrimidinetriones, 5-alkylated pyrimidinetriones or the 5,5-dialkylated pyrimidinetriones showed antifungal activity through 125 μg/mL) | MIC80 C. albicans [2, 4]: — (none of the 5-acyl-2,4,6-pyrimidinetriones, 5-alkylated pyrimidinetriones or the 5,5-dialkylated pyrimidinetriones showed antifungal activity through 125 μg/mL)

CN1C(=O)C(C=Nc2ccc(O)cc2)C(=O)N(C)C1=O [BA79]
MIC80 C. glabrata [1, 4]: — (none of the 5-acyl-2,4,6-pyrimidinetriones, 5-alkylated pyrimidinetriones or the 5,5-dialkylated pyrimidinetriones showed antifungal activity through 125 μg/mL) | MIC80 C. albicans [2, 4]: — (none of the 5-acyl-2,4,6-pyrimidinetriones, 5-alkylated pyrimidinetriones or the 5,5-dialkylated pyrimidinetriones showed antifungal activity through 125 μg/mL)

CC(=O)C1C(=O)NC(=O)N(c2ccccc2)C1=O (centres unmarked) [BA21]
MIC80 C. glabrata [1, 5]: — (none of the 5-acyl-2,4,6-pyrimidinetriones, 5-alkylated pyrimidinetriones or the 5,5-dialkylated pyrimidinetriones showed antifungal activity through 125 μg/mL) | MIC80 C. albicans [2, 5]: — (none of the 5-acyl-2,4,6-pyrimidinetriones, 5-alkylated pyrimidinetriones or the 5,5-dialkylated pyrimidinetriones showed antifungal activity through 125 μg/mL)

COC(=O)NN=C(c1ccc(O)cc1)C1C(=O)N(C)C(=O)N(C)C1=O [BA36]
MIC80 C. glabrata [1, 9]: — (none of the 5-acyl-2,4,6-pyrimidinetriones, 5-alkylated pyrimidinetriones or the 5,5-dialkylated pyrimidinetriones showed antifungal activity through 125 μg/mL) | MIC80 C. albicans [2, 9]: — (none of the 5-acyl-2,4,6-pyrimidinetriones, 5-alkylated pyrimidinetriones or the 5,5-dialkylated pyrimidinetriones showed antifungal activity through 125 μg/mL)

— US20160235752A1, “COMPOSITIONS, METHODS OF USE, AND METHODS OF TREATMENT” (THE UNIVERSITY OF NEW ORLEANS, priority 2013, published 2016)
